Each compound was assayed against T1, AAT (Homo sapiens, UniProt P01009, E366K) (assay: Compound Quality score (potency in AAT functional assay multiplied by unbound clearance)). Conditions: compound potency (EC50) x unbound clearance; class symbols.
T1 construct: expressed in transfected cells; host or cells: NL20 human bronchial epithelial cells (NL20-SI cell line), with doxycycline added alongside the compounds
Source text: As used herein, the term “Compound Quality” refers to the potency of a compound multiplied (x) by the compound's unbound clearance as measured using the assays described in Example 6.
The terms “unbound clearance” refer to unbound intrinsic clearance (unbound CLint) in hepatocytes—the intrinsic clearance a drug would have in the absence of protein binding. Unbound CLint=CLint,hep/fu,hep, where CLint,hep is intrinsic clearance in hepatocytes and fu,hep is unbound fraction in hepatocytes.
A key consideration for the selection of compounds suitable for clinical development is the projection of human dose as described in Equations 1-3. Two key parameters that comprise the dose equation are the unbound clearance of a compound and the plasma efficacious exposure (also referred to herein as compound potency). Together these parameters are known to one skilled in the art as a measurement of Compound Quality and suitability for advancement into clinical development. Thus, when evaluating AAT modulator compounds, one needs to consider both the potency and unbound clearance parameters (i.e., Compound Quality). The relationship between these two parameters can be challenging to predict.
The values provided in the table below are calculated by multiplying the EC50 of each of the compounds by the result from the clearance assay procedures described in Section C above and rounded to two significant figures. In the table below, the following meanings apply for Compound Quality (i.e., compound potency x unbound clearance) values: “++++” means ≤0.2; “+++” means >0.20 and ≤0.30; “++” means >0.30 and ≤0.40; “+” means >0.40 and ≤0.50.

T1 sequence (P01009 25-418 E366K): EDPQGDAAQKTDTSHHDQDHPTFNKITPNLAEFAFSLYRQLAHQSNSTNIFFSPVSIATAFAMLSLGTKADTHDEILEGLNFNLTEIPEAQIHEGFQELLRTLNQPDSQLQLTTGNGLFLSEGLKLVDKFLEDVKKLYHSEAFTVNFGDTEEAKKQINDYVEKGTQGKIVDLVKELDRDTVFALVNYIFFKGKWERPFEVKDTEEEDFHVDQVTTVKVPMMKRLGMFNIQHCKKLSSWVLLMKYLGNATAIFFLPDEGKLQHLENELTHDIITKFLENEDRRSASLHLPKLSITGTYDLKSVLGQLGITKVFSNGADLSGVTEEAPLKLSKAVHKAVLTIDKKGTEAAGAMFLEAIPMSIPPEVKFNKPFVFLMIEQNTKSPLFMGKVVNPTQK

Structure (SMILES)	Compound Quality
CCC(O)(CCOC)c1c(-c2ccc(C(=O)O)cc2)c2c(F)c3[nH]ncc3cc2n1-c1ccc(F)cc1 (stereo not drawn) [Compound 41]	+ (“+” means >0.40 and ≤0.50)
CCC(O)(COC)c1c(-c2ccc(C(=O)O)c(C)c2)c2c(F)c3[nH]ncc3cc2n1-c1ccc(F)c(OC)c1 (stereo not drawn) [Compound 40]	+++ (“+++” means >0.20 and ≤0.30)
CC[C@@](O)(COC)c1c(-c2ccc(C(=O)O)cc2)c2c(F)c3[nH]ncc3cc2n1-c1cccc(F)c1 [Compound 15]	++ (“++” means >0.30 and ≤0.40)
CCC(O)(COC)c1c(-c2ccc(C(=O)O)c(C)c2)c2c(F)c3[nH]ncc3cc2n1-c1ccc(F)c(Cl)c1 (stereo not drawn) [Compound 36]	+++ (“+++” means >0.20 and ≤0.30)
[2H]C1([2H])C([2H])([2H])C([2H])([2H])[C@](O)(c2c(-c3ccc(C(=O)O)cc3)c3c(F)c4[nH]ncc4cc3n2-c2ccc(F)cc2)[C@@]([2H])(OC)C1([2H])[2H] [Compound 29]	++++ (“++++” means ≤0.2)
CCOCC(O)(CC)c1c(-c2ccc(C(=O)O)cc2)c2c(F)c3[nH]ncc3cc2n1-c1ccc(F)c(OC)c1 (stereo not drawn) [Compound 9]	+++ (“+++” means >0.20 and ≤0.30)
[2H]C([2H])([2H])Oc1cc(-n2c([C@@](O)(CC)COC)c(-c3ccc(C(=O)O)cc3)c3c(F)c4[nH]ncc4cc32)ccc1F [Compound 10]	++ (“++” means >0.30 and ≤0.40)
[2H]C([2H])([2H])C([2H])([2H])C(O)(COC)c1c(-c2ccc(C(=O)O)cc2)c2c(F)c3[nH]ncc3cc2n1-c1ccc(F)c(F)c1 (stereo not drawn) [Compound 21]	++ (“++” means >0.30 and ≤0.40)
CC[C@](O)(COC)c1c(-c2ccc(C(=O)O)cc2)c2c(F)c3[nH]ncc3cc2n1-c1ccc(F)c(C)c1 [Compound 7]	+++ (“+++” means >0.20 and ≤0.30)
CC[C@](O)(COC)c1c(-c2ccc(C(=O)O)cc2)c2c(F)c3[nH]ncc3cc2n1-c1ccc(F)c(OC)c1 [Compound 8]	+ (“+” means >0.40 and ≤0.50)
CCC(O)(COC)c1c(-c2ccc(C(=O)O)c(C)c2)c2c(F)c3[nH]ncc3cc2n1-c1ccc(F)cc1 (stereo not drawn) [Compound 35]	++++ (“++++” means ≤0.2)
CC[C@@](O)(COC)c1c(-c2ccc(C(=O)O)cc2)c2c(F)c3[nH]ncc3cc2n1-c1cc(C)c(F)c(F)c1 [Compound 42]	++ (“++” means >0.30 and ≤0.40)
[2H]C([2H])([2H])C([2H])([2H])C(O)(COC)c1c(-c2ccc(C(=O)O)cc2)c2c(F)c3[nH]ncc3cc2n1-c1ccc(F)c(Cl)c1 (stereo not drawn) [Compound 12]	+++ (“+++” means >0.20 and ≤0.30)
CCC(O)(COC)c1c(-c2ccc(C(=O)O)c(C)c2)c2c(F)c3[nH]ncc3cc2n1-c1ccc(F)c(F)c1 (stereo not drawn) [Compound 17]	+++ (“+++” means >0.20 and ≤0.30)
[2H]C([2H])([2H])OCC(O)(CC)c1c(-c2ccc(C(=O)O)cc2)c2c(F)c3[nH]ncc3cc2n1-c1ccc(F)c(F)c1 (stereo not drawn) [Compound 33]	+++ (“+++” means >0.20 and ≤0.30)
CC[C@@](O)(COC)c1c(-c2ccc(C(=O)O)cc2)c2c(F)c3[nH]ncc3cc2n1-c1cc(F)c(F)c(OC)c1 [Compound 16]	++ (“++” means >0.30 and ≤0.40)
CCOCC(O)(CC)c1c(-c2ccc(C(=O)O)cc2)c2c(F)c3[nH]ncc3cc2n1-c1ccc(F)c(F)c1 (stereo not drawn) [Compound 11]	+++ (“+++” means >0.20 and ≤0.30)
COC1CCCC1(O)c1c(-c2ccc(C(=O)O)cc2)c2c(F)c3[nH]ncc3cc2n1-c1ccc(F)c(C)c1 (stereo not drawn) [Compound 43]	+ (“+” means >0.40 and ≤0.50)
CC[C@](O)(COC)c1c(-c2ccc(C(=O)O)cc2)c2c(F)c3[nH]ncc3cc2n1-c1ccc(F)c(F)c1 [Compound 6]	++ (“++” means >0.30 and ≤0.40)
[2H]C([2H])([2H])C([2H])([2H])C(O)(COC)c1c(-c2ccc(C(=O)O)cc2)c2c(F)c3[nH]ncc3cc2n1-c1ccc(F)cc1 (stereo not drawn) [Compound 18]	+++ (“+++” means >0.20 and ≤0.30)
[2H]C([2H])([2H])Oc1cc(-n2c(C3(O)CCCCC3OC)c(-c3ccc(C(=O)O)cc3)c3c(F)c4[nH]ncc4cc32)ccc1F (stereo not drawn) [Compound 22]	++++ (“++++” means ≤0.2)
COC1CCCC1(O)c1c(-c2ccc(C(=O)O)cc2)c2c(F)c3[nH]ncc3cc2n1-c1ccc(F)c(F)c1 (stereo not drawn) [Compound 28]	+++ (“+++” means >0.20 and ≤0.30)
[2H]C([2H])([2H])Oc1cc(-n2c(C(O)(COC)C([2H])([2H])C([2H])([2H])[2H])c(-c3ccc(C(=O)O)cc3)c3c(F)c4[nH]ncc4cc32)ccc1F (stereo not drawn) [Compound 46]	+++ (“+++” means >0.20 and ≤0.30)
COc1cc(-n2c(C3(O)CCCCC3OC)c(-c3ccc(C(=O)O)cc3)c3c(F)c4[nH]ncc4cc32)ccc1F (stereo not drawn) [Compound 24]	+++ (“+++” means >0.20 and ≤0.30)

Now from value to compound:

Compound Quality	Structure (SMILES)
++ (“++” means >0.30 and ≤0.40)	CCOCC(O)(CC)c1c(-c2ccc(C(=O)O)cc2)c2c(F)c3[nH]ncc3cc2n1-c1cccc2cnn(C)c12 (stereo not drawn) [Compound 64]
++++ (“++++” means ≤0.2)	[2H]C([2H])([2H])Oc1cc(-n2c(C3(O)CCCC[C@@H]3OC)c(-c3ccc(C(=O)O)c(C)c3)c3c(F)c4[nH]ncc4cc32)ccc1F (stereo partly drawn) [Compound 54]
+++ (“+++” means >0.20 and ≤0.30)	[2H]C([2H])([2H])C([2H])([2H])C(O)(COC)c1c(-c2ccc(C(=O)O)cc2)c2c(F)c3[nH]ncc3cc2n1-c1ccc(F)c(OC)c1 (stereo not drawn) [Compound 47]
++ (“++” means >0.30 and ≤0.40)	[2H]C([2H])([2H])OCC(O)(CC)c1c(-c2ccc(C(=O)O)cc2)c2c(F)c3[nH]ncc3cc2n1-c1ccc(F)cc1 (stereo not drawn) [Compound 52]
+ (“+” means >0.40 and ≤0.50)	CCc1cc(-c2c(C(O)(CC)COC)n(-c3ccc(F)c(F)c3)c3cc4cn[nH]c4c(F)c23)ccc1C(=O)O (stereo not drawn) [Compound 48]
++ (“++” means >0.30 and ≤0.40)	CO[C@H]1CCCCC1(O)c1c(-c2ccc(C(=O)O)c(F)c2)c2c(F)c3[nH]ncc3cc2n1-c1ccc(F)cc1 (stereo partly drawn) [Compound 67]
+ (“+” means >0.40 and ≤0.50)	CCC(O)(COC)c1c(-c2ccc(C(=O)O)cc2F)c2c(F)c3[nH]ncc3cc2n1-c1ccc(F)c(C)c1 (stereo not drawn) [Compound 63]
++ (“++” means >0.30 and ≤0.40)	COc1cc(-n2c(C3(O)CCCC[C@@H]3OC)c(-c3ccc(C(=O)O)c(C)c3)c3c(F)c4[nH]ncc4cc32)ccc1F (stereo partly drawn) [Compound 55]
++ (“++” means >0.30 and ≤0.40)	CCc1cc(-c2c(C(O)(CC)COC)n(-c3ccc(F)c(OC)c3)c3cc4cn[nH]c4c(F)c23)ccc1C(=O)O (stereo not drawn) [Compound 49]
++ (“++” means >0.30 and ≤0.40)	[2H]C([2H])([2H])OCC(O)(CC)c1c(-c2ccc(C(=O)O)cc2)c2c(F)c3[nH]ncc3cc2n1-c1ccc(F)c(OC)c1 (stereo not drawn) [Compound 53]
+ (“+” means >0.40 and ≤0.50)	[2H]C([2H])([2H])OC[C@@](O)(c1c(-c2ccc(C(=O)O)cc2)c2c(F)c3[nH]ncc3cc2n1-c1ccc(F)c(C)c1)C([2H])([2H])C([2H])([2H])[2H] [Compound 57]
++ (“++” means >0.30 and ≤0.40)	COc1cc(-n2c(C3(O)CCCCC3F)c(-c3ccc(C(=O)O)cc3)c3c(F)c4[nH]ncc4cc32)ccc1F (stereo not drawn) [Compound 66]
